This is an account of results in DBAASP.

Structures are written as SMILES. ≈ marks a conversion by molar mass, not a printed value.

As usually defined, the MIC is the lowest concentration that inhibits growth of the organism.

Test systems include Salmonella enterica; Proteus mirabilis; Klebsiella oxytoca; Serratia marcescens; Enterobacter cloacae; Staphylococcus aureus; Klebsiella aerogenes; Pseudomonas aeruginosa; Acinetobacter baumannii; Klebsiella pneumoniae; Bacillus subtilis 168 HT; Escherichia coli E423-17.
Assay in all cases: ≥ marks a high value that may be exact or a test limit, other limits are often not marked, values filed in µg/mL are converted to µM
Experiment [1] relates to Staphylococcus haemolyticus.
The test system of experiment [2] is Staphylococcus epidermidis.
The test system of experiment [3] is Escherichia coli ATCC 35218.
Experiment [4] relates to Staphylococcus saprophyticus.
Experiment [5] deals with Escherichia coli K12 MG1655.
Experiment [6] relates to Staphylococcus haemolyticus 527.
Experiment [7] relates to Staphylococcus aureus ST88.
The subject of experiment [8] is Escherichia coli ATCC 2592.
The subject of experiment [9] is Proteus vulgaris ATCC 6380.
The subject of experiment [10] is Candida albicans ATCC 36232.
The test system of experiment [11] is Micrococcus luteus ATCC 9341.
The subject of experiment [12] is Staphylococcus aureus ATCC 6538.
The test system of experiment [13] is Pseudomonas aeruginosa ATCC 9027.
Experiment [14] has as its system Staphylococcus aureus NBRC 12732.
For experiment [15], the system named is Escherichia coli NBRC 14237.
For experiment [16], the system named is Pseudomonas aeruginosa NBRC 12582.
Experiment [17] has as its system Acinetobacter baumannii B28-16.
The test system of experiment [18] is Staphylococcus aureus UAMS-1.
Experiment [19] deals with Staphylococcus aureus Newman.
Experiment [20] concerns Pseudomonas aeruginosa E411-17.
The subject of experiment [21] is Staphylococcus aureus USA 200.
For experiment [22], the system named is Staphylococcus aureus MU50.
Experiment [23] concerns Staphylococcus aureus USA 300.
Experiment [24] deals with Klebsiella pneumoniae E406-17.
Experiment [25] concerns Enterococcus faecium V286-17.
The subject of experiment [26] is Staphylococcus aureus M838-17.
For experiment [27], the system named is Staphylococcus aureus USA 400.
Experiment [28] deals with Aspergillus oryzae NBRC 100959.
For experiment [29], the system named is Candida viswanathii NBRC 10321.
In experiment [30] the test system is Escherichia coli NBRC 3972.
Experiment [31] deals with Staphylococcus epidermidis NBRC 12993.
Experiment [32] concerns Pseudomonas putida NBRC 100650.
Experiment [33] relates to Micrococcus luteus NBRC 3333.

Turning to `CC[C@H](C)[C@H](NC(=O)[C@H](CCCCN)NC(=O)[C@H](C)NC(=O)[C@H](CC(C)C)NC(=O)[C@H](Cc1ccccc1)NC(=O)[C@H](CCCN=C(N)N)NC(=O)[C@H](C)NC(=O)[C@H](Cc1ccc(O)cc1)NC(=O)[C@H](CCCN=C(N)N)NC(=O)[C@H](Cc1cnc[nH]1)NC(=O)[C@H](Cc1ccccc1)NC(=O)[C@H](Cc1ccc(O)cc1)NC(=O)[C@H](CCCN=C(N)N)NC(=O)[C@H](CCC(N)=O)NC(=O)[C@@H](N)Cc1ccccc1)C(=O)N[C@@H](Cc1c[nH]c2ccccc12)C(=O)N[C@@H](CCCCN)C(=O)NCC(=O)O` [FQRYFHRYARFLAKIWKG], the minimal inhibitory concentration (MIC) in experiment [1] turned out to be 10 µM (≈ 23.9 µg/mL); in experiment [2] it was 10 µM (≈ 23.9 µg/mL); in experiment [3], 0.9 µM (≈ 2.15 µg/mL); in the experiment with Salmonella enterica it was 10 µM (≈ 23.9 µg/mL); against Proteus mirabilis, 10 µM (≈ 23.9 µg/mL); in the experiment on Klebsiella oxytoca, 3.6 µM (≈ 8.6 µg/mL). Besides, the MIC is 10 µM (≈ 23.9 µg/mL) in the experiment with Serratia marcescens; 10 µM (≈ 23.9 µg/mL) with Enterobacter cloacae; 10 µM (≈ 23.9 µg/mL) in experiment [4]; 1.8 µM (≈ 4.3 µg/mL) in the experiment with Staphylococcus aureus; 10 µM (≈ 23.9 µg/mL) against Klebsiella aerogenes; 2.8 µM (≈ 6.69 µg/mL) in the experiment with Pseudomonas aeruginosa. Also, the MIC against Acinetobacter baumannii turned out to be 10 µM (≈ 23.9 µg/mL); against Klebsiella pneumoniae, 1.4 µM (≈ 3.34 µg/mL).

Take `CC[C@H](C)[C@H](NC(=O)[C@H](CCCCN)NC(=O)[C@@H](NC(=O)[C@@H](N)Cc1ccccc1)C(C)C)C(=O)N[C@@H](CC(C)C)C(=O)N[C@@H](C)C(=O)N[C@@H](CCCCN)C(=O)N[C@@H](CC(C)C)C(=O)N[C@H](C(=O)N[C@@H](CC(N)=O)C(=O)N[C@@H](Cc1ccc(O)cc1)C(=O)N[C@@H](C)C(=O)N[C@@H](CCCCN)C(=O)N[C@@H](CC(N)=O)C(=O)O)C(C)C` [FVKILAKLVNYAKN]: the minimal inhibitory concentration (MIC) in experiment [5] is at least 79 µM; in experiment [6] it was at least 100 µM; in [7], at least 100 µM; against Bacillus subtilis 168 HT, 19.8 µM (≈ 32.1 µg/mL).

With `CC(C)[C@H](NC(=O)[C@H](CCCCN)NC(=O)[C@@H]1CCCN1C(=O)[C@@H](NC(=O)[C@@H](NC(=O)[C@H](CCCCN)NC(=O)[C@@H](N)CCCCN)C(C)C)C(C)C)C(=O)N[C@@H](CCCCN)C(=O)N[C@@H](Cc1ccccc1)C(=O)N[C@@H](CCCCN)C(N)=O` [KKVVPKVKFK], the MIC in experiment [8] is at least 83.3 µM; in experiment [9], at least 83.3 µM; in experiment [10], at least 83.3 µM; in [11], at least 83.3 µM; in [12], above 83.3 µM; in the experiment with Staphylococcus aureus, above 83.3 µM. For the same compound, in experiment [13], the MIC came out at 83.3 µM (≈ 99.9 µg/mL).

Consider `CC(C)C[C@H](NC(=O)[C@@H](N)CCCCN)C(=O)N[C@@H](CCCCN)C(=O)N[C@H](C(=O)N[C@@H](Cc1c[nH]c2ccccc12)C(=O)N1CCC[C@H]1C(=O)N[C@@H](CCCCN)C(=O)N[C@@H](CC(N)=O)C(=O)N[C@@H](Cc1ccc(O)cc1)C(=O)N[C@@H](Cc1c[nH]c2ccccc12)C(=O)N[C@@H](CCCN=C(N)N)C(=O)N[C@@H](CCCCN)C(=O)N[C@H](C(=O)N[C@@H](Cc1c[nH]c2ccccc12)C(=O)N[C@@H](CO)C(=O)N[C@@H](CCCCN)C(=O)N[C@@H](CCCCN)C(=O)N[C@@H](CC(N)=O)C(=O)N[C@@H](Cc1c[nH]c2ccccc12)C(=O)N[C@@H](CCCN=C(N)N)C(=O)N[C@@H](CCCCN)C(=O)N[C@@H](Cc1ccccc1)C(=O)N[C@H](C(=O)N[C@@H](CCCCN)C(=O)N[C@@H](CCCCN)C(=O)N[C@@H](Cc1ccccc1)C(=O)N[C@@H](CCCCN)C(=O)N[C@@H](Cc1cnc[nH]1)C(=O)N[C@@H](Cc1c[nH]c2ccccc12)C(=O)O)C(C)C)C(C)C)[C@@H](C)O` [KLKTWPKNYWRKVWSKKNWRKFVKKFKHW], for which the MIC in experiment [14], in [15] and in experiment [16] was 3.12 µM (≈ 12.4 µg/mL) throughout.

Consider `CC(C)[C@H](NC(=O)[C@H](Cc1c[nH]c2ccccc12)NC(=O)[C@H](Cc1c[nH]c2ccccc12)NC(=O)[C@H](Cc1c[nH]c2ccccc12)NC(=O)[C@H](Cc1c[nH]c2ccccc12)NC(=O)[C@H](CCCN=C(N)N)NC(=O)[C@H](CCCN=C(N)N)NC(=O)[C@@H](N)CCCN=C(N)N)C(N)=O` [RRRWWWWV], for which the MIC in [17] came out at 8 µM (≈ 10.6 µg/mL); in experiment [18], 4 µM (≈ 5.32 µg/mL); in experiment [19], 4 µM (≈ 5.32 µg/mL); in experiment [20], 5.66 µM (≈ 7.52 µg/mL); in the experiment with Escherichia coli E423-17, 2 µM (≈ 2.66 µg/mL); in [21], 4 µM (≈ 5.32 µg/mL). In addition, the minimum inhibitory concentration (MIC) in experiment [22] came to 8 µM (≈ 10.6 µg/mL); in experiment [23], 2.83 µM (≈ 3.76 µg/mL); in [24] it was 11.3 µM (≈ 15 µg/mL); in the experiment on Staphylococcus aureus, 4 µM (≈ 5.32 µg/mL); in the experiment with Klebsiella pneumoniae, 11.3 µM (≈ 15 µg/mL); in experiment [25], 2 µM (≈ 2.66 µg/mL). The MIC in experiment [26] was 3.1 µM (≈ 4.12 µg/mL); in [27], 4 µM (≈ 5.32 µg/mL).

Consider `CC[C@H](C)[C@H](NC(=O)[C@H](CCCCN)NC(=O)[C@H](CCCN=C(N)N)NC(=O)[C@H](CCC(=O)O)NC(=O)[C@H](CCC(=O)O)NC(=O)[C@H](CCSC)NC(=O)[C@@H](NC(=O)[C@H](CC(N)=O)NC(=O)[C@@H](N)CO)C(C)C)C(=O)N[C@@H](CCCCN)C(=O)N[C@H](C(=O)N[C@@H](Cc1ccc(O)cc1)C(=O)N[C@@H](CC(C)C)C(=O)N1CCC[C@H]1C(=O)N[C@@H](CCCN=C(N)N)C(=O)N[C@@H](CCSC)C(=O)N[C@@H](CCCCN)C(=O)N[C@@H](CCSC)C(=O)N[C@@H](CCC(=O)O)C(=O)N[C@@H](CCC(=O)O)C(=O)O)C(C)C` [SNVMEERKIKVYLPRMKMEE], for which the minimal inhibitory concentration (MIC) in experiment [28], in experiment [29], in [30], in [31], in [32] and in experiment [33] was at least 319 µM in each case.
